Test results from patent US20190282673A1, “STAPHTAME ACTIVITY ON BIOFILMS” (priority 2016, published 2019).
“And” between values parts separate entries of the source, which are not always exact repeats. Equal values may be shown once. Read-outs that look alike come from different tables or passages of the source.

What was measured:
[1] = tested on: S. aureus MW2 biofilms on catheters; test: Preformed biofilms on catheters, safranin staining and SEM; type: cell-based, Staphylococcus aureus; conditions: 18 hrs; P128 8 μg/mL (1×MIC); vancomycin 90 μg/mL (90×MIC); daptomycin 10 μg/mL (10×MIC)
Description: To study the efficacy of P128 on biofilms on catheters, an overnight-grown culture of S. aureus MW2 was diluted 1:40 in TSB containing 5% rabbit plasma. Catheter (JMS Infusion set) pieces of 1-2 cm size were cut, slit into two halves and added to the culture. The cultures with catheter pieces were incubated at 37° C. with shaking at 100 rpm for 24 h. Post incubation, the catheters were removed and rinsed twice in PBS to remove the adhering planktonic cells. The biofilms on catheters were challenged with 8, 4, 2 and 1 μg/mL of P128 or 15, 30 and 90 μg/mL of vancomycin or 10 μg/mL of daptomycin (with 50 μg/mL CaCl2) by transferring the catheter pieces into tubes containing the drugs. The tubes were incubated at 37° C. under static conditions for 18 hrs. The catheters were then removed from the tubes, rinsed once in PBS, and immersed in 0.1% safranin for 5 min. The stained catheters were washed once in PBS and allowed to dry. After drying, samples were fixed on aluminum stubs with double sided carbon adhesive tape, coated with 5-7 nm thickness gold using a sputter-coating system (Quorum Technologies; Q150T) and examined by SEM (Carl Zeiss; Neon 40) for the presence of biofilm structures.

[2] = tested on: S. lugdunensis B9510 biofilms; test: MBIC and checkerboard synergy on preformed biofilm (MTT assay); type: cell-based; conditions: S. lugdunensis B9510 72 h preformed biofilm, 6 hr treatment
Description: […] LB supplemented with 50 μg/mL Ca^++ was used for daptomycin treatment wells. The contents of the well was aspirated out and discarded. The biofilm adhered to the wells was quantified by MTT assay as described above. In each experiment, in addition to the combination MBIC, the MBIC of each drug was also determined individually. The fractional MBIC concentrations were determined by MTT dye method as described above. The FICI and synergy was calculated.

[3] = tested on: S. aureus COL; type: in vivo, BALB/c mice; conditions: P128 0.2 mg/kg ip single dose, or both
Description: A standard mouse model of S. aureus bacteremia was used. Zuluaga, et al. (2006) “Neutropenia induced in out bred mice by a simplified low-dose cyclophosphamide regimen: Characterization and applicability to diverse experimental models of infectious diseases” BMC Infect. Dis. 6:55-64. Female BALB/c mice of 8-9 weeks age were challenged by intraperitoneal route with S. aureus COL at 10^9 CFU per animal. After the bacterial challenge, animals were treated through parenteral routes with P128 alone or P128 in combination with standard of care antibiotics (e.g., vancomycin, daptomycin, linezolid, oxacillin, etc.). Animals were monitored for survival for a period of 72 hours. In this model of infection, normal as well as immunocompromised (neutropenia induced by cyclophosphamide) mice were used to evaluate P128 and antibiotic-P128 combinations.
Eight to nine weeks old female BALB/c mice were challenged intraperitoneally with 10^9 CFU of S. aureus COL. At 2 hours post-infection, animals were treated with either P128 at 0.2 mg/kg via intraperitoneal route, or vancomycin at 55 mg/kg by subcutaneous route, or a combination of both by respective routes. Groups treated with only vancomycin or combination of P128 and vancomycin were administered a second dose of vancomycin 12 hours after the first dose.
In the same model, efficacy of daptomycin in combination with P128 was evaluated. At 2 hours post-infection, animals were treated with either P128 at 0.2 mg/kg administered by intraperitoneal route, or daptomycin at 12.5 mg/kg administered by subcutaneous route; or a combination of both administered by respective routes. Groups treated with only daptomycin or combination of P128 and daptomycin were administered a second dose of daptomycin 12 hours after the first daptomycin dose.

[4] = tested on: S. aureus; test: MIC and checkerboard synergy (broth microdilution) on planktonic cells; type: cell-based, Staphylococcus aureus; conditions: for MIC: Staphylococcus aureus
Description: MIC was determined using a modified Clinical and Laboratory Standards Institute (CLSI) broth microdilution procedure described earlier in Vipra, et al. (2012) “Antistaphylococcal activity of bacteriophage derived chimeric protein P128” BMC Microbiol. 12:41-50; and Clinical and Laboratory Standards Institute (2012) “Methods for Dilution Antimicrobial Susceptibility Tests for Bacteria That Grow Aerobically; Approved Standard” CLSI document M07-A9.9 ed. Wayne, Pa. USA. In order to determine effects of combinations of P128 with antibiotics, combinations of various dilutions of P128 and a second drug were tested for growth inhibition using a microdilution checkerboard technique. See Lu, et al. (2013) “In vitro activity of sodium new houttuyfonate alone and in combination with oxacillin or netilmicin against methicillin-resistant Staphylococcus aureus” PLoS One 8:e68053. Briefly, S. aureus culture at a final cell number of 5×10^5 CFU/mL was added to wells of 96-well microtiter plates (precoated with 0.5% BSA), containing two-fold dilutions of P128 and the second drug in cation adjusted Mueller Hinton Broth (CAMHB). The plates were incubated at 37° C. for 24 h and the individual MICs and the combination MICs were read. The fractional inhibitory concentration index (FICI) was determined using the following equation: FICI=(MIC of drug A in the combination/MIC of drug A alone)+(MIC of drug B in the combination/MIC of drug B alone). The combination was considered to be synergistic when the FICI was ≤0.5; additive when FICI was 0.5-1.0; indifferent when FICI was 1-4 and antagonistic when FICI≥4. The experiments were performed in triplicate and repeated twice.
In order to find out whether P128 can act in a synergistic manner with commonly used antibiotics, MIC based growth inhibition assays were performed. MIC based synergy was studied by checkerboard method by determining the FIC index using the method of Lu, et at (2013) “In vitro activity of sodium new houttuyfonate alone and in combination with oxacillin or netilmicin against methicillin-resistant Staphylococcus aureus” PLoS One 8:e68053. […] Similarly.
Bacterial cultures at a final cell number of 5×10^5 CFU/mL was added to wells of 96-well microtiter plates (precoated with 0.5% BSA), containing two-fold dilutions of P128 and the second drug in cation adjusted Mueller Hinton Broth (CAMHB). The plates were incubated at 37° C. for 24 h and the individual MICs and the combination MICs were read. The fractional inhibitory concentration index (FICI) was determined using the following equation: FICI=(MIC of drug A in the combination/MIC of drug A alone)+(MIC of drug B in the combination/MIC of drug B alone). The combination was considered to be synergistic when the FICI was ≤0.5; additive when FICI was 0.5-1.0; indifferent when FICI was 1-4 and antagonistic when FICI≥4.

[5] = S. aureus COL, Daptomycin 12.5 mg/kg sc 2 doses, 24 mice per group
[6] = S. aureus COL 10^9 CFU ip, Vancomycin 55 mg/kg sc 2 doses, 26 mice per group

## CCCCCCCCCC(=O)N[C@@H](Cc1c[nH]c2ccccc12)C(=O)N[C@H](CC(N)=O)C(=O)N[C@@H](CC(=O)O)C(=O)N[C@@H]1C(=O)NCC(=O)N[C@@H](CCCN)C(=O)N[C@@H](CC(=O)O)C(=O)N[C@H](C)C(=O)N[C@@H](CC(=O)O)C(=O)NCC(=O)N[C@H](CO)C(=O)N[C@@H]([C@H](C)CC(=O)O)C(=O)N[C@@H](CC(=O)c2ccccc2N)C(=O)O[C@@H]1C [Daptomycin, daptomycin]
[1]
  Effect on catheter biofilm (safranin/SEM): significant reduction in biofilm mass
[2]
  MBIC (drug alone): 15.6 µg/mL
[3]; [5]
  Survival at 72 h post infection: 45%

## CC(=O)NC[C@H]1CN(c2ccc(N3CCOCC3)c(F)c2)C(=O)O1 [Linezolid, linezolid]
[4]; 24 h, LRSA strain B9456, read-out: MIC (drug alone)
  MIC: > 32 µg/mL
[4]; 24 h, LRSA strain B9457, read-out: MIC (drug alone)
  MIC: 8 µg/mL
[2]
  MBIC (drug alone): 125 µg/mL

## CN[C@H](CC(C)C)C(=O)N[C@H]1C(=O)N[C@@H](CC(N)=O)C(=O)N[C@H]2C(=O)N[C@H]3C(=O)N[C@H](C(=O)N[C@H](C(=O)O)c4cc(O)cc(O)c4-c4cc3ccc4O)[C@H](O)c3ccc(c(Cl)c3)Oc3cc2cc(c3O[C@@H]2O[C@H](CO)[C@@H](O)[C@H](O)[C@H]2O[C@H]2C[C@](C)(N)[C@H](O)[C@H](C)O2)Oc2ccc(cc2Cl)[C@H]1O [Vancomycin, vancomycin]
[4]; 24 h, read-out: MIC (drug alone), S. aureus B9241 (gentamycin and ciprofloxacin resistant)
  MIC: 1 µg/mL
[4]; ATCC29213, read-out: MIC over the strains, ATCC29213, BK1 and B9241
  MIC: 1 µg/mL
[4]; ATCC 29213 / MSSA, 24 h, read-out: MIC (drug alone), S. aureus ATCC 29213 (MSSA)
  MIC: 1 µg/mL
[4]; MRSA, 24 h, read-out: MIC (drug alone), S. aureus BK1 (MRSA, ciprofloxacin resistant)
  MIC: 1 µg/mL
[4]; VRSA, 24 h, read-out: MIC (drug alone), VRSA strain VRS 1
  MIC: 32 µg/mL
[4]; VRSA, 24 h, read-out: MIC (drug alone), VRSA strain VRS 2
  MIC: 32 µg/mL
[4]; VRSA, 24 h, read-out: MIC (drug alone), VRSA strain VRS 3a
  MIC: 32 µg/mL
[4]; VRSA, 24 h, read-out: MIC (drug alone), VRSA strain VRS 3b
  MIC: 32 µg/mL
[4]; VRSA, 24 h, read-out: MIC (drug alone), VRSA strain VRS 4
  MIC: 32 µg/mL
[4]; VRSA, 24 h, read-out: MIC (drug alone), VRSA strain VRS 10
  MIC: 16 µg/mL
[1]
  Effect on catheter biofilm (safranin/SEM): minimal effect
[2]
  MBIC (drug alone): 250 µg/mL
[3]; [6]
  Survival at 72 h post infection: 46%

B1: P128: anti-staphylococcal chimeric protein: phage tail associated muralytic enzyme (TAME) cell wall-degrading region plus staphylococcus-specific binding region; SEQ ID NO: 1 (protein)
chain: MSLDSLKKYNGKLPKHDPSFVQPGNRHYKYQCTWYAYNRRGQLGIPVPLWGDAADWIGGAKGAGYGVGRTPKQGACVIWQRGVQGGSPQYGHVAFVEKVLDGGKKIFISEHNYATPNGYGTRTIDMSSAIGKNAQFIYDKKLETPNTGWKTNKYGTLYKSESASFTPNTDIITRTTGPFRSMPQSGVLKAGQTIHYDEVMKQDGHVWVGYTGNSGQRIYLPVRTWNKSTNTLGVLWGTIK
modifications: P128 chimera
[4]; ATCC29213, BK1 and B9241
  MIC over the strains: 4 to 8 µg/mL
[4]; LRSA strain B9456
  MIC (drug alone): 2 µg/mL
[4]; LRSA strain B9457
  MIC (drug alone): 1 µg/mL
[4]; MRSA strain BK22
  MIC (drug alone): 0.45 µg/mL
[4]; S. aureus ATCC 29213 (MSSA)
  MIC (drug alone): 4 µg/mL
[4]; S. aureus B9241 (gentamycin and ciprofloxacin resistant)
  MIC (drug alone): 8 µg/mL
[4]; S. aureus BK1 (MRSA, ciprofloxacin resistant)
  MIC (drug alone): 4 µg/mL
[4]; S. aureus BK18
  MIC (drug alone): 2 µg/mL and 4 µg/mL
[4]; VRSA strain VRS 1
  MIC (drug alone): 1.9 µg/mL
[4]; VRSA strain VRS 2
  MIC (drug alone): 1.9 µg/mL
[4]; VRSA strain VRS 3a
  MIC (drug alone): 1.9 µg/mL
[4]; VRSA strain VRS 3b
  MIC (drug alone): 0.97 µg/mL
[4]; VRSA strain VRS 4
  MIC (drug alone): 1.9 µg/mL
[4]; VRSA strain VRS 10
  MIC (drug alone): 3.9 µg/mL
[1]
  Effect on catheter biofilm (safranin/SEM): eradication of the biofilm
[2]
  MBIC (drug alone): 32 µg/mL and 16 µg/mL
[3]; [6]
  Survival at 72 h post infection: 30%
[3]; [5]
  Survival at 72 h post infection: 45%
